Measurements taken from article PMC9851200, “Multiparameter phenotypic screening for endogenous TFEB and TFE3 translocation identifies novel chemical series modulating lysosome function” (Autophagy, 2022).

Tests used:
Type in all cases: binding
[1] = molecular target: T1, kinases (KINOMEscan panel) (Homo sapiens, UniProt P21709); settings: EPHA1; NEW KINOMEscan
T1 sequence (P21709 26-976): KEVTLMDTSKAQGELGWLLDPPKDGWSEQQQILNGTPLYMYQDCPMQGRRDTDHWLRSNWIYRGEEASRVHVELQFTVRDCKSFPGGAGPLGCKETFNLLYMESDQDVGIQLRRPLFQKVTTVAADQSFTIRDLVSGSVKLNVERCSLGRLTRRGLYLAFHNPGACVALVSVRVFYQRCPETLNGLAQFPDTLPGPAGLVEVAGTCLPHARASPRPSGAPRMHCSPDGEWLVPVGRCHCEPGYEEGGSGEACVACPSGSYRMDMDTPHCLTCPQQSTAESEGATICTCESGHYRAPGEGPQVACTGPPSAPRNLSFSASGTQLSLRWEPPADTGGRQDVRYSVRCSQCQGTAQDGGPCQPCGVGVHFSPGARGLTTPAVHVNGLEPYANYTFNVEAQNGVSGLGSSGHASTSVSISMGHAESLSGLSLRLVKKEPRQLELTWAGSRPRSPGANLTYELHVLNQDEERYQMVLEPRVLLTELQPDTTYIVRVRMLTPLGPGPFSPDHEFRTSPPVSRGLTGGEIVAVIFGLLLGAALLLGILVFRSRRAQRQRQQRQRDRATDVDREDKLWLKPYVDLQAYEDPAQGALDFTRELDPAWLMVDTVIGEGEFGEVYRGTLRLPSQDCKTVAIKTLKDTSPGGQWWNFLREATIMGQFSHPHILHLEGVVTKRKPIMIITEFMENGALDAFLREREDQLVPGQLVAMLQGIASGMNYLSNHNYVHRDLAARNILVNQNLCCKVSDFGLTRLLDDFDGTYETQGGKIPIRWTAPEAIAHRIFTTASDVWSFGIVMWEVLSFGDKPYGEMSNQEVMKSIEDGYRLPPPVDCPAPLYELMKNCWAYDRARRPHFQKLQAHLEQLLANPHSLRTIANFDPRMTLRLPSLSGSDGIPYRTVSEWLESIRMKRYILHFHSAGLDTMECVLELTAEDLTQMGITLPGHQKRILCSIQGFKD

[2] = molecular target: T2, kinases (KINOMEscan panel) (Homo sapiens, UniProt P51955); settings: kinase NEK2; NEW KINOMEscan
T2 sequence (P51955 1-445): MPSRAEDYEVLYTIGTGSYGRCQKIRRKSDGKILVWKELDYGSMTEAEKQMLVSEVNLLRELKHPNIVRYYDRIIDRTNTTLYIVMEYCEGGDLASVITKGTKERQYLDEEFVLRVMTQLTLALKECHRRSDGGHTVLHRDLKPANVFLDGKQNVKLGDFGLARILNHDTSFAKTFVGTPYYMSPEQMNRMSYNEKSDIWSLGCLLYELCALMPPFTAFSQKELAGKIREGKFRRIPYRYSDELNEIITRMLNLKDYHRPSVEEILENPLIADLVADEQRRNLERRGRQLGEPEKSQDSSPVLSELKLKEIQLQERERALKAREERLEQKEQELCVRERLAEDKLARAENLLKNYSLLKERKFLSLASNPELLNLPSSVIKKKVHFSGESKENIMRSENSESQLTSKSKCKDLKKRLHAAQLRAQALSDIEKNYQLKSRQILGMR

[3] = molecular target: kinases (KINOMEscan panel) (Homo sapiens, UniProt P80192); settings: NEW KINOMEscan
kinases (KINOMEscan panel) (Homo sapiens, UniProt P80192), sequence (P80192 whole entry): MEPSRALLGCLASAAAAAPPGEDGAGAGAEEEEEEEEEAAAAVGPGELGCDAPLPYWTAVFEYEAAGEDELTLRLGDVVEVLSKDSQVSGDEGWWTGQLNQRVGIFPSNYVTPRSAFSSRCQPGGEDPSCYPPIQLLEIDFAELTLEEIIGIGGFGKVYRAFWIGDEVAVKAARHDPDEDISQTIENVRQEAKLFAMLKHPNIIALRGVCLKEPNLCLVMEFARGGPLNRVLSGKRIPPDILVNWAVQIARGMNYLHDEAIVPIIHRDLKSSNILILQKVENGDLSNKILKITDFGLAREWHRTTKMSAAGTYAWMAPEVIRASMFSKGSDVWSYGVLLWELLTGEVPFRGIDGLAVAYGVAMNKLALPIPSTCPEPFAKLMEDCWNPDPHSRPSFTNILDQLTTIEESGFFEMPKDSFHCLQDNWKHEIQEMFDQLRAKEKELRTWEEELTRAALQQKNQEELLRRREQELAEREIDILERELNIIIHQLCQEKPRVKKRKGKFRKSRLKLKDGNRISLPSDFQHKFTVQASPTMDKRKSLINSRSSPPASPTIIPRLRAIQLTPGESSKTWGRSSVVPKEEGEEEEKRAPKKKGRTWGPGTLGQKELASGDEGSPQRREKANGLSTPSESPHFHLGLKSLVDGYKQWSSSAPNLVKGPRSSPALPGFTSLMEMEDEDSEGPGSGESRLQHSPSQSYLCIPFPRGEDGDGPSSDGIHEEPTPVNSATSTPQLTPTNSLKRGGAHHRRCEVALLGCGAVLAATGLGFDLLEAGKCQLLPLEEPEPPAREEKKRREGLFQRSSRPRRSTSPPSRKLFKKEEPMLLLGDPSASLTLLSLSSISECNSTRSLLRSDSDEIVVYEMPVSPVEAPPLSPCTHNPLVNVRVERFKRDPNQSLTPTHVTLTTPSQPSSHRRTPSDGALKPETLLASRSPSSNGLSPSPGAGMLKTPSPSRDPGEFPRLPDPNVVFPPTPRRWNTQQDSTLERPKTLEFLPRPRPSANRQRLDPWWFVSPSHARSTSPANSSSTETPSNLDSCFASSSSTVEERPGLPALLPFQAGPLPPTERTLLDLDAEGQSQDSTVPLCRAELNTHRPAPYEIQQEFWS

[4] = molecular target: T3, kinases (KINOMEscan panel) (Homo sapiens, UniProt Q16832); settings: DDR2; NEW KINOMEscan
T3 sequence (Q16832 22-855): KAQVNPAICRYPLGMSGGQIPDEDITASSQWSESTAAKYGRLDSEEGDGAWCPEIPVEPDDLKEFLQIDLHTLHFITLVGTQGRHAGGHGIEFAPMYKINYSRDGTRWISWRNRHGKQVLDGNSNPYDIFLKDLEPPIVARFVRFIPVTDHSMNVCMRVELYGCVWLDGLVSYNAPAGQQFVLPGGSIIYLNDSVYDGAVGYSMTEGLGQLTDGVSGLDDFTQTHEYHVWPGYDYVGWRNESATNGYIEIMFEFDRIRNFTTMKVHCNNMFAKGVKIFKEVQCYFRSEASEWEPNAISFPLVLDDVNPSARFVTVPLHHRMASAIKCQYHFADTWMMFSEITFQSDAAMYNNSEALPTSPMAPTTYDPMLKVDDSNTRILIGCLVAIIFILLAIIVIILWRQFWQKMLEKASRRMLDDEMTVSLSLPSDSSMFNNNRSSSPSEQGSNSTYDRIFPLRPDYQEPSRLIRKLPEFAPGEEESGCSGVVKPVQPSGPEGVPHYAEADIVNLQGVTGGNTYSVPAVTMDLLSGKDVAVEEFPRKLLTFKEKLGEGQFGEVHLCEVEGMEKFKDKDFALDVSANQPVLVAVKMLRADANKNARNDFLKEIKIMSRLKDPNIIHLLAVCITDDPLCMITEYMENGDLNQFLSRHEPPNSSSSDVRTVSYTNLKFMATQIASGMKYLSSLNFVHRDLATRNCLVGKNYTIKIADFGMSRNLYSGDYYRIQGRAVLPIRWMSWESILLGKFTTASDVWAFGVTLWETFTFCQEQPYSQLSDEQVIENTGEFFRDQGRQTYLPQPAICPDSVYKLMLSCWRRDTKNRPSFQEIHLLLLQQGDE

[5] = molecular target: T4, kinases (KINOMEscan panel) (Homo sapiens, UniProt Q96D53); settings: kinase COQ8B; NEW KINOMEscan
T4 sequence (Q96D53 1-544): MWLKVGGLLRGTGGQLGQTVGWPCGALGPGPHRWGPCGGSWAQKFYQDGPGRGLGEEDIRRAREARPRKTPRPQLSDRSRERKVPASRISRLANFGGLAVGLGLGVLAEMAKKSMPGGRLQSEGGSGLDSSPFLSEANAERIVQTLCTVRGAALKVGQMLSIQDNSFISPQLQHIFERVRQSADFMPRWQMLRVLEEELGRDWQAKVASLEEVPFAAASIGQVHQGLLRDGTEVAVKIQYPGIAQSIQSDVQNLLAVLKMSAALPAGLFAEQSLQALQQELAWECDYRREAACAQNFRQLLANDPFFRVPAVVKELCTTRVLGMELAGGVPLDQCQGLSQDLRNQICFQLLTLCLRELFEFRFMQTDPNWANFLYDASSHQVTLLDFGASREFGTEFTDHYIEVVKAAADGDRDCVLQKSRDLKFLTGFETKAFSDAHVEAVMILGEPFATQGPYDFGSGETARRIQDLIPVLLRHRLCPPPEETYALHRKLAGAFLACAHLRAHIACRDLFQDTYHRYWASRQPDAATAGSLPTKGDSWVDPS

[6] = molecular target: kinases (KINOMEscan panel) (Homo sapiens, UniProt Q9H4B4); settings: kinase PLK3; NEW KINOMEscan
kinases (KINOMEscan panel) (Homo sapiens, UniProt Q9H4B4), sequence (Q9H4B4 whole entry): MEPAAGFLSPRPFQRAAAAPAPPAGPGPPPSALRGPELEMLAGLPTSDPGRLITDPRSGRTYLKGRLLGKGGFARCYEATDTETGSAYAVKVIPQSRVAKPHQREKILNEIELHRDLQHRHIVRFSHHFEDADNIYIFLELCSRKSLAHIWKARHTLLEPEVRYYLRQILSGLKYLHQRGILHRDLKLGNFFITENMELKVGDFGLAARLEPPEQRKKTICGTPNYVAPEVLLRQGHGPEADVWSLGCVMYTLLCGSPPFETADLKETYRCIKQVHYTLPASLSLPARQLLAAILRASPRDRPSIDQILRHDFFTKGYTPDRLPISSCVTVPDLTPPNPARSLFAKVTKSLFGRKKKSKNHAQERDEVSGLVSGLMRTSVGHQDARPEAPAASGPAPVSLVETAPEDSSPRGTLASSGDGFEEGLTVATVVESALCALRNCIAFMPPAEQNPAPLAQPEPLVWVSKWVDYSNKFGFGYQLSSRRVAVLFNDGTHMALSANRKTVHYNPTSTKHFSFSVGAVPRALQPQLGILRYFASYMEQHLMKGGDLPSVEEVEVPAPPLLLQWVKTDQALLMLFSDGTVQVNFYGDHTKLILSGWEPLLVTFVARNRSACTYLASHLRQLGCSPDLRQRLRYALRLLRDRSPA

Compound | KINOMEscan EPHA1 [1] | KINOMEscan NEK2 [2] | KINOMEscan MAP3K9 [3] | KINOMEscan DDR2 [4] | KINOMEscan COQ8B [5] | KINOMEscan PLK3 [6]
Cc1cccc(-c2nc(N(C)c3ccc4ncsc4c3)c3ccccc3n2)n1 [NK-161] | 0 | 1 | 27 | 1 | 0 | 13
Cc1cccc(-c2nc(Nc3ccc4nn(C)cc4c3)c3ccccc3n2)n1 [NK167] | 1 | 0 | 11 | 2 | 0 | 16
